{
  "source": "patent US11007269B2",
  "about": "“P53 degradation inducing molecule and pharmaceutical composition” (Tokyo University of Science Foundation, priority 2016, dated 2021)",
  "target": "endogenous wild-type p53 protein (Homo sapiens, UniProt P04637)",
  "sequence (P04637 whole entry)": "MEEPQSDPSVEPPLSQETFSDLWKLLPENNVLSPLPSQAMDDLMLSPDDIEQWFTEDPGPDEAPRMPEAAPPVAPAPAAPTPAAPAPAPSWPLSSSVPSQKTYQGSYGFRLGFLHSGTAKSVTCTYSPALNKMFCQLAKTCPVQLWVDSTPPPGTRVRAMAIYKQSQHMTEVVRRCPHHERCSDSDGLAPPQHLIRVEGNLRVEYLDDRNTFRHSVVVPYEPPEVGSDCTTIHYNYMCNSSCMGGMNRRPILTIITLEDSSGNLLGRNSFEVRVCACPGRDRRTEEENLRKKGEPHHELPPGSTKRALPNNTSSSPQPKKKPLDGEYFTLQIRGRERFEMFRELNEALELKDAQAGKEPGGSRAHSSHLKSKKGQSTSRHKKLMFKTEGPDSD",
  "assay": "Western blot of endogenous wild-type p53 protein degradation in HeLa cells, with rescue by proteasome inhibitor",
  "assay_type": "cell-based",
  "set-up": "endogenous in cells",
  "description": "In Example 3, degradation (knockdown) of an endogenous wild-type p53 protein in HeLa cells (human cervical cancer cells) to which TIBC-CANDDY_MLN has been added was evaluated by Western blot analysis. At the same time, a rescue of degradation of the p53 protein by a proteasome inhibitor (MLN2238) was evaluated.\nHeLa cells were seeded in a 24-well plate at a cell density of 4×10^4 cells/well, and then cultured under conditions of 37° C. and 5 vol % CO2 for 16 hours.\nAfter 16 hours from cell seeding, TIBC-CANDDY_MLN was added to HeLa cells as follows. As a medium, a serum-free medium (37° C.) in which 1 mass % L-glutamine solution (Sigma-Aldrich) was added to D-MEM (high D-glucose, phenol red, sodium pyruvate (Wako Pure Chemical Industries, Ltd.)) was used. It is noted that the L-glutamine solution was added immediately before use. A DMSO solution containing TIBC-CANDDY_MLN was mixed with the medium so that the concentration of DMSO was 1 vol %, and added to each well at 500 μL/well, and cultured under conditions of 37° C. and 5 vol % CO2. As a control, DMSO was used. Furthermore, in addition to an experiment group in which a DMSO solution containing TIBC-CANDDY_MLN had been added, an experiment group in which a DMSO solution containing both TIBC-CANDDY_MLN and MLN2238, or MLN2238 had been added was prepared. […]",
  "data": [
    {"smiles": "CC(C)C[C@H](NC(=O)CNC(=O)c1cc(Cl)ccc1Cl)C(=O)NCCCCCCC(=O)Nc1ccc(C(=O)/C=C/c2ccc(I)cc2)cc1", "note": "[TIBC-CANDDY_MLN]", "values": [
      {"measurement": "amount of the endogenous wild-type p53 protein (Western blot)", "setting": "24 hours after addition, vs DMSO control", "result": "reduced"},
      {"measurement": "amount of the wild-type p53 protein when proteasome inhibitor MLN2238 is added as well (rescue)", "setting": "24 hours, both TIBC-CANDDY_MLN and MLN2238 added", "result": "increased as compared with the control (DMSO)"}
    ]}
  ]
}
